Key:
[1] = Concentration in the fur of a dog after topical spot-on solution of the thioamide; format: in vivo; conditions: 0.1 ml/kg
Description: A topical spot-on solution of the thioamide solution containing 100 mg/ml of thioamide and diethylene glycol monoethyl ether was applied to the fur of a dog at the dose rate of 0.1 ml/kg of body weight. The concentration of fipronil in the fur was measured on day 2 and day 7.

[2] = Concentration in blood plasma of dogs after oral solution of the thioamide derivative of fipronil; format: in vivo
Description: An oral formulation (solution) comprising 100 mg/ml of thioamide derivatives of fipronil dissolved in 60:40 propylene glycol: glycerol formal was administered to dogs and the concentration of fipronil in blood plasma measured at 6 hours, day 1, day 2, and day 7 and is presented below

[3] = In vitro degradation studies of the thioamide derivative of fipronil in CH3CN/H2O under degradation agents; format: physicochemical
Description: A solution containing thioamide derivative of fipronil in a solution of CH3CN/H2O (50:50 v/v) and the solution was subjected to the following degradation agents: 0.5 N HCl; 0.5 N NaOH; 5% H2O2; UV light; fluorescent light and heat (65° C.).

In the case of `NC(=S)c1nn(-c2c(Cl)cc(C(F)(F)F)cc2Cl)c(N)c1[S+]([O-])C(F)(F)F` (stereo not shown) [thioamide derivative of fipronil], the concentration at 2 day ([1]; Day 2, topical spot-on 100 mg/ml thioamide in diethylene glycol monoethyl ether) is reported as 363000 ng/g, the concentration at 7 day ([1]; Day 7, topical spot-on 100 mg/ml thioamide in diethylene glycol monoethyl ether) is reported as 59300 ng/g and the “concentration in blood plasma” value ([2]; Pre-treatment, oral solution 100 mg/ml thioamide derivative in 60:40 propylene glycol:glycerol formal) is reported as 0.0 µg/g. It also gave a concentration at 6 h ([2]; dog, plasma, Day 0.25 (6 hours), oral solution 100 mg/ml thioamide derivative) of 262000 ng/g, a concentration at 1 day ([2]; dog, plasma, Day 1, oral solution 100 mg/ml thioamide derivative) of 162000 ng/g and a concentration at 2 day ([2]; dog, plasma, Day 2, oral solution 100 mg/ml thioamide derivative) of 129000 ng/g. For the same molecule, the concentration at 7 day ([2]; dog, plasma, Day 7, oral solution 100 mg/ml thioamide derivative) was 54600 ng/g, the “in-vivo degradation into fipronil” value ([2]; oral solution) was “degrades into fipronil in-vivo in amounts that are sufficient for efficacy” and the “stability in acid” value ([3]; 0.5 N HCl) was “Thioamide derivative stable in acid with only”. For the same molecule, the “amounts of fipronil formed” value ([3]; 0.5 N HCl, 4 days) was “negligible”, the thioamide derivative degraded ([3]; 0.5 N HCl, in 4 days, solution of CH3CN/H2O (50:50 v/v)) was 2.7% and the fipronil formed ([3]; 0.5 N NaOH, 1 hour) was “hour, but no fipronil was formed”. For the same molecule, the thioamide derivative degraded ([3]; 0.5 N NaOH, in 1 hour, CH3CN/H2O (50:50 v/v)) was 95% if the thioamide derivative degraded in 1, the fipronil formed ([3]; 5% H2O2, 1.5 hours) was 1.5 hours but no fipronil was formed; fipronil and the fipronil sulfone formed ([3]; 5% H2O2, 1.5 hours) was “sulfone was formed”. For the same molecule, the thioamide derivative degraded ([3]; 5% H2O2, in 1.5 hours, CH3CN/H2O (50:50 v/v)) was 100% of the thioamide derivation degraded in, the degraded to fipronil ([3]; Fluorescent light, in 4 days, CH3CN/H2O (50:50 v/v)) was 23% degraded to fipronil in 4 days and the degraded to fipronil ([3]; Heat (65° C.), in 4 days, CH3CN/H2O (50:50 v/v)) was 20% of the thioamide derivation degraded to. For the same molecule, the thioamide derivative degraded ([3]; UV light, in 1 hour, CH3CN/H2O (50:50 v/v)) was 24% of the thioamide derivation degraded in 1.

From patent publication US20050234119A1, “Antiparasitical agents and methods for treating, preventing and controlling external parasites in animals” (priority 2004, published 2005)
